Measured values reported in patent publication US20020052390A1, “METHODS AND MATERIALS FOR TREATING AND PREVENTING INFLAMMATION OF MUCOSAL TISSUE” (priority 1997, published 2002).
Values after ≈ are worked out from the molar mass of the structure shown. Values joined by “and” are separate entries in the source; they are usually repeats but may differ in a detail not shown here. Identical values can stand only once. Like-named read-outs stand apart in the source and are kept apart here. One block for each compound: values may come before it.

Legend:
Geotrichum = test: MIC, macro broth dilution technique (NCCLS), isolates from rhinosinusitis patients; type: cell-based; conditions: 48 hour MIC reading
Method: (§1) The following procedure was used to determine effective antifungal agents as well as effective concentrations of antifungal agents such that the fungal organisms isolated from patients can be prevented from growing or killed.
(§2) Seventeen fungal isolates were collected from eight rhinosinusitis patients and tested for susceptibility against amphotericin B, ketoconazole, and itraconazole. Each antifungal agent was tested on these fungal isolates using the macro broth dilution technique according to the National Committee on Clinical Laboratory Standards (NCCLS) protocol. […] The results from this procedure provided an estimate of the efficacy of antifungal agents against specific fungal isolates in vitro.

Trichoderma = test: as above; type: cell-based; conditions: 48 hour MIC reading
Method: as §1, §2

[1] = tested on: non-invasive fungus-induced rhinosinusitis patients; test: Amphotericin B nasal irrigation study, three month follow-up (Example 2); type: in vivo, human
From the text: In addition to patient interviewing, CT scan analysis, visual examination, and fungal culture analysis, two types of evaluations were used to score the success of the treatment: an endoscopic evaluation and a patient symptom evaluation.

[2] = tested on: fungal organisms within their mucus; test: Analysis of mucus samples of non-responding patients for resistance; type: cell-based; conditions: five of the nine non-responding patients
From the text: Eleven of the 53 patients went from endoscopic evaluation stage 2 or 3 to stage 1 after three months. […] Five of the nine non-responding patients had previously collected mucus samples that were available for examination.

[3] = tested on: patient with rhinosinusitis; test: Single patient study, one-sided then two-sided amphotericin B irrigation, RAST assay to Alternaria; type: in vivo, human
From the text: In addition, the previously detected fungal load in the initially untreated side (right side) was sufficient to eventually cause presentation of visual or palpable rhinosinusitis symptoms in that initially untreated side. Further, the fungal organisms present in the initially untreated side (right side) induced high IgE titers, as shown by IgE readings from the RAST assays, independent of concurrent reduction of fungal organisms by antifungal treatment applied to the left side. In this case, a reduction of IgE readings from the RAST assays was only observed after irrigating both sides with an antifungal agent. Thus, the reduction of IgE and the prevention of disease symptoms coincided with the treatment of both sides with an antifungal agent.

[4] = tested on: non-invasive fungus-induced rhinosinusitis patients; test: Patient data collected during a one week period (amphotericin B nasal irrigations); type: in vivo, human; set-up: Endoscopy Score B / Endoscopy Score A / Symptom Score B: scale not given here
From the text: In addition to patient interviewing, CT scan analysis, visual examination, and fungal culture analysis, two types of evaluations were used to score the success of the treatment: an endoscopic evaluation and a patient symptom evaluation. These evaluations were scored as follows:
Only previously seen patients that were instructed to use the antifungal amphotericin B nasal irrigations were entered into this study.
During a one week period, twenty patients returned to the physician's office (Table II). The average age of the returning patients was 47 years (range 16-74 years). The patients were using the amphotericin B irrigations for an average duration of about six months (range 1-16 months). […] In addition, some patients were using topical and systemic steroid therapy. Further, some patients were using an antibiotic nasal irrigation in addition to the antifungal irrigations. The antibacterial solution contained 80 mg gentamicin per L saline (Wilson's solution). Some patients mixed the antibacterial solution with the antifungal solution and then performed the nasal irrigations while others used each solution separately in a sequential manner. Some patients also had other diseases including asthma (15 of the 20 patients) and colitis (2 of the 20 patients).

[5] = tested on: non-invasive fungus-induced rhinosinusitis patients; test: Amphotericin B irrigations in patients without previous nasal surgery (Example 3); type: in vivo, human
From the text: A person was diagnosed with non-invasive fungus-induced rhinosinusitis and instructed to perform amphotericin B irrigations twice a day.
A person was diagnosed with non-invasive fungus-induced rhinosinusitis and instructed to perform amphotericin B irrigations twice a day, which was later increased to four times a day.
A person was diagnosed with non-invasive fungus-induced rhinosinusitis and instructed to perform amphotericin B irrigations twice a day. This patient had been given intramuscular steroid shots every 3 to 8 months with the last shot being administered about seven months prior to starting the amphotericin B irrigations.

[6] = tested on: non-invasive fungus-induced rhinosinusitis patient; test: Eosinophil count in mucosal biopsies after amphotericin B irrigations (Example 4); type: in vivo, human
From the text: A person was diagnosed with non-invasive fungus-induced rhinosinusitis and instructed to perform amphotericin B irrigations twice a day. After nine months of amphotericin B irrigations, the patient underwent sinus surgery for further improvement. During the surgery mucosal biopsies were collected and the eosinophil count compared to the those obtained from biopsies collected from the patient during a surgery prior to the antifungal treatment.

[7] = tested on: patients with chronic asthma; test: Chronic asthma symptoms in patients of the Example 2 study (Example 5); type: in vivo, human
[8] = tested on: non-invasive fungus-induced rhinosinusitis patients; test: Itraconazole nasal irrigation (Example 7); type: in vivo, human; conditions: for adverse local reaction to nasal irrigations: third patient
Method: Three non-invasive fungus-induced rhinosinusitis patients (person, person, and person) were instructed to perform nasal irrigation with an itraconazole solution. The itraconazole solution contained about 100 mg of itraconazole per L of solution (10% PEG-400 in sterile water) and was prepared as described herein. […] Each patient reported marked improvement in symptoms within two weeks of starting the itraconazole irrigations (symptom scores: -1 to +2 and -1 to +1).
After treatment with itraconazole, that patient reported symptom improvement (symptom score: from -1 to 0).

Candida = test: MIC, macro broth dilution technique (NCCLS), isolates from rhinosinusitis patients; type: cell-based; conditions: 48 h, 48 hour MIC reading, each table line is one isolate
Method: as §1, §2

Cladosporium = test: as above; type: cell-based; conditions: 48 h, 48 hour MIC reading, each table line is one isolate
Method: as §1, §2

Penicillium = test: as above; type: cell-based; conditions: 48 h, 48 hour MIC reading, each table line is one isolate
Method: as §1, §2

[9] = Concentrations of itraconazole in solution by HPLC; type: physicochemical; conditions: read-out: Soluble Itraconazole Concentration
Method: Itraconazole formulations were made by dissolving itraconazole into polyethylene glycol (PEG) to form an itraconazole stock solution. […] Typically, PEG 400 was used to dissolve the itraconazole. Once dissolved, the stock solution was filtered to remove any insoluble material. Then, the stock solution was prepared for use by dilution with sterile water. […] One liter of heated (70° C.) PEG-400 was added to the graduated cylinder containing the itraconazole. The mixture was then placed onto a stirring hot plate and maintained at 70° C. for 30 minutes. After 30 minutes, the hot suspension was filtered through a urine stone filter into a glass container and allowed to cool to room temperature. Once cooled, 100 mL of the filtered solution was placed into an empty plastic bottle. Then, 900 mL of sterile water was added and the solution mixed. Once mixed, one drop of flavoring was added (peppermint oil). […] The following concentrations of itraconazole were determined for each indicated solution by HPLC (Table III).

[10] = tested on: patient with asthma symptoms; test: Itraconazole nasal irrigation in an asthma patient, pulmonary function (Example 8); type: in vivo, human; conditions: before antifungal treatment
Method: Sputum and nasal-paranasal mucus samples were collected and analyzed.
The concentration of the itraconazole solution was about 100 mg per liter. After a few weeks, the patient took their last course of systemic steroids. About two months after stopping the systemic steroids, the patient also stopped using the topical steroids as well as the bronchodilator.

[11] = Oral itraconazole capsule, drug remaining in the bowel lumen (Example 10); type: in vivo, human; conditions: 100 mg capsule before bedtime, two hours after last meal, without cola
From the text: Three out of five consecutive patients with chronic rhinosinusitis reported having a history of colitis. […] Each patient was instructed to take the capsule before bedtime a minimum of two hours after their last meal and without any cola. Food and cola beverages increase absorption of the drug.

[12] = patient symptom evaluation after treatment, 53 patients
[13] = after antifungal treatment (1-16 months, 1-2 x day), each table line is one patient
[14] = before antifungal treatment, each table line is one patient
[15] = sixteen days after starting the itraconazole irrigations

MIC (Geotrichum; read-out: MIC): 0.05 µg/mL (≈ 0.0941 µM)
MIC (Trichoderma; read-out: MIC): 50 µg/mL (≈ 94.1 µM)
SMILES: CC(=O)N1CCN(c2ccc(OCC3COC(Cn4ccnc4)(c4ccc(Cl)cc4Cl)O3)cc2)CC1 (centres unmarked) [Ketoconazole, ketoconazole]

SMILES: C[C@@H]1[C@H](O)[C@@H](C)/C=C/C=C/C=C/C=C/C=C/C=C/C=C/[C@H](O[C@@H]2O[C@H](C)[C@@H](O)[C@H](N)[C@@H]2O)C[C@@H]2O[C@](O)(C[C@@H](O)C[C@@H](O)[C@H](O)CC[C@@H](O)C[C@@H](O)CC(=O)O[C@H]1C)C[C@H](O)[C@H]2C(=O)O [Amphotericin B, amphotericin B]
MIC (Geotrichum): 0.1 µg/mL (≈ 0.108 µM)
MIC (Trichoderma): 4 µg/mL (≈ 4.33 µM)
patients who went from endoscopic evaluation stage 2 or 3 to stage 0 ([1]; about 20 mL amphotericin B solution (about 100 mg per liter) per nostril, two to four times daily, after three months, 53 patients): 33 of the 53
CT scan finding ([1]; one patient with bilateral rhinosinusitis, 20 mL (100 mg/L) per nostril two times daily, after four months): complete disappearance of opacity and symptoms characteristic of rhinosinusitis
patients giving themselves symptom stage 0 [1, 12]: six of the 53
patients giving themselves symptom stage 1 [1, 12]: three of the 53
patients giving themselves symptom stage 2 [1, 12]: 44 of the 53
patients who did not respond to the treatment (endoscopic evaluation) ([1]; same regimen, after three months, 53 patients): nine
number of different fungal species in mucus after treatment ([1]; several patients, mucus cultured before and after antifungal treatment): remarkably reduced
susceptibility of fungal organisms in mucus of non-responding patients [2]: resistant
RAST reading to Alternaria ([3]; after right-side surgery and treatment of both sides for about seven weeks): 4.47 KU/L
clinical status ([3]; after treatment of both sides for about seven weeks): symptom-free
Endoscopy Score A [4, 13]: 0 (10×) and 3 (5×) and 1 (2×)
Symptom Score A [4, 13]: +1 (6×) and +2 (6×) and 0 (6×) and −2 and 1
Endoscopy Score B [4, 14]: 1 (3×) and 2 (5×) and 3 (10×) and 0
Symptom Score B [4, 14]: −1 (14×) and −2 (6×)
endoscopic evaluation of rhinosinusitis condition ([4]; most of twenty patients): observable improvement
endoscopic score after treatment ([5]; amphotericin B irrigations twice (to four times) a day for four to sixteen months): 0
symptom score before treatment ([5]; patients without previous nasal surgery): −1
eosinophil count in mucosal biopsies ([6]; all the sinuses except the frontal, after nine months of irrigations twice a day): < 5%
eosinophil count in the frontal sinus biopsy ([6]; frontal sinus (obstructed, irrigation presumably did not reach it), after nine months): 10%
asthmatic patients declaring an improvement or complete elimination of asthma symptoms ([7]; after three months of antifungal treatment, 37 asthmatic patients): 28 of the 37
patients with improved pulmonary function (pulmonary function test before and after) ([7]; four patients tested): all four
patients who stopped taking their asthma medication ([7]; of the 28 patients no longer exhibiting asthma symptoms): 26 of the 28
adverse local reaction to nasal irrigations [8]: burning sensation

SMILES: CCC(C)n1ncn(-c2ccc(N3CCN(c4ccc(OCC5COC(Cn6cncn6)(c6ccc(Cl)cc6Cl)O5)cc4)CC3)cc2)c1=O (centres unmarked) [Itraconazole, itraconazole]
MIC (Candida): 0.03 µg/mL (≈ 0.0425 µM)
MIC (Cladosporium): 0.125 µg/mL (≈ 0.177 µM)
MIC (Penicillium): 0.5 µg/mL (≈ 0.709 µM)
solubility ([9]; PEG-400, organic solvent or mixture, 500 mg Itraconazole powder AS into 250 mL PEG-400 (stock solution)): 1950 µg/mL (≈ 2760 µM)
solubility at 30 min ([9]; PEG-400, organic solvent or mixture, 2000 mg Itraconazole from capsules into 1 L PEG-400 (stock solution)): 1840 µg/mL (≈ 2610 µM)
solubility ([9]; PEG-400/sterile water solution, aqueous with cosolvent or surfactant or cyclodextrin, kinetic from dmso stock, 100 mL capsule stock solution diluted with 900 mL sterile water): 113 µg/mL (≈ 160 µM)
solubility ([9]; PEG-400/sterile water solution, aqueous with cosolvent or surfactant or cyclodextrin, kinetic from dmso stock, 100 mL capsule stock solution plus 25 mL PEG-400 diluted with 875 mL sterile water): 155 µg/mL
solubility ([9]; PEG-400/sterile water solution, aqueous with cosolvent or surfactant or cyclodextrin, kinetic from dmso stock, 100 mL capsule stock solution plus 150 mL PEG-400 diluted with 750 mL sterile water): 179 µg/mL
solubility ([9]; PEG-400/sterile water solution, aqueous with cosolvent or surfactant or cyclodextrin, kinetic from dmso stock, 100 mL powder AS stock solution diluted with 900 mL sterile water): 85 µg/mL (≈ 120 µM)
symptom score before itraconazole irrigations ([8]; itraconazole solution about 100 mg per L (10% PEG-400 in sterile water)): -1
endoscopic score, left side, before ([8]; one patient): 1
endoscopic score, right side, before ([8]; one patient): 1
endoscopic score, left side, after [8, 15]: 1
endoscopic score, right side, after [8, 15]: 0
adverse local reaction to nasal irrigations [8]: did not have any adverse local reaction
forced expiratory volume in 1 second (FEV1) before treatment [10]: 3.34 L
forced vital capacity (FVC) before treatment [10]: 3.99 L
maximal forced expiratory flow (FEFmax) before treatment [10]: 9.1 liter per second
maximum voluntary ventilation (MVV) before treatment [10]: 119 liter per minute
itraconazole that should remain in the bowel lumen [11]: about 50%
